# Data reported in ChEMBL document CHEMBL1159142, “A convenient degradation of polyoxin D to uracil polyoxin C: access to key intermediates and synthesis of antifungal -aminoacyl derivatives of UPOC” (Bioorg Med Chem Lett, 1993).
# System: Candida albicans
# Assay: Geometric mean minimum inhibitory concentration (GMMIC) for whole cell activity against Candida albicans
# Format: functional
row,Compound,GMMIC
1,CSCCC(N)C(=O)N[C@H](C(=O)O)[C@H]1O[C@@H](n2ccc(=O)[nH]c2=O)[C@H](O)[C@@H]1O (some centres not stated),49 µg/mL
2,CC[C@H](C)C(N)C(=O)N[C@H](C(=O)O)[C@H]1O[C@@H](n2ccc(=O)[nH]c2=O)[C@H](O)[C@@H]1O (some centres not stated),>2048 µg/mL
3,C[C@@H](Cc1ccc(O)cn1)[C@H](N)C(=O)N[C@H](C(=O)O)[C@H]1O[C@@H](n2ccc(=O)[nH]c2=O)[C@H](O)[C@@H]1O,51 µg/mL
4,C[C@@H]([C@H](N)C(=O)N[C@H](C(=O)O)[C@H]1O[C@@H](n2ccc(=O)[nH]c2=O)[C@H](O)[C@@H]1O)[C@H](O)c1ccc(O)cn1 [NIKKOMYCIN],6 µg/mL
5,CC(C)[C@H](N)C(=O)N[C@H](C(=O)O)[C@H]1O[C@@H](n2ccc(=O)[nH]c2=O)[C@H](O)[C@@H]1O,87 µg/mL
6,COc1ccc2[nH]cc(C[C@H](N)C(=O)N[C@H](C(=O)O)[C@H]3O[C@@H](n4ccc(=O)[nH]c4=O)[C@H](O)[C@@H]3O)c2c1,>2048 µg/mL
7,CC[C@@H](C)C(N)C(=O)N[C@H](C(=O)O)[C@H]1O[C@@H](n2ccc(=O)[nH]c2=O)[C@H](O)[C@@H]1O (some centres not stated),44 µg/mL
8,N[C@@H](Cc1c[nH]c2ccc(F)cc12)C(=O)N[C@H](C(=O)O)[C@H]1O[C@@H](n2ccc(=O)[nH]c2=O)[C@H](O)[C@@H]1O,>2048 µg/mL
9,NC(=O)OC[C@H](O)[C@@H](O)[C@H](N)C(=O)N[C@H](C(=O)O)[C@H]1O[C@@H](n2cc(C(=O)O)c(=O)[nH]c2=O)[C@H](O)[C@@H]1O,153 µg/mL
10,N[C@@H](CCc1ccc(O)cn1)C(=O)N[C@H](C(=O)O)[C@H]1O[C@@H](n2ccc(=O)[nH]c2=O)[C@H](O)[C@@H]1O,118 µg/mL
11,NC(Cc1c[nH]c2ccc(O)cc12)C(=O)NC[C@H]1OC(n2ccc(=O)[nH]c2=O)[C@H](O)[C@@H]1O (some centres not stated),>2048 µg/mL
12,NC(Cc1c[nH]c2ccc(O)cc12)C(=O)N[C@H](CO)[C@H]1OC(n2ccc(=O)[nH]c2=O)[C@H](O)[C@@H]1O (some centres not stated),>2048 µg/mL
13,C=C[C@@H](C)C(N)C(=O)N[C@H](C(=O)O)[C@H]1O[C@@H](n2ccc(=O)[nH]c2=O)[C@H](O)[C@@H]1O (some centres not stated),406 µg/mL
14,C[C@H](Cc1ccc(O)cn1)[C@H](N)C(=O)N[C@H](C(=O)O)[C@H]1O[C@@H](n2ccc(=O)[nH]c2=O)[C@H](O)[C@@H]1O,9.3 µg/mL
15,N[C@H](C(=O)O)[C@H]1OC(n2ccc(=O)[nH]c2=O)[C@H](O)[C@@H]1O (some centres not stated),>2048 µg/mL
16,N[C@@H](Cc1c[nH]c2ccc(O)cc12)C(=O)N[C@H](C(=O)O)[C@H]1O[C@@H](n2ccc(=O)[nH]c2=O)[C@H](O)[C@@H]1O,27 µg/mL
17,N[C@H](C(=O)N[C@H](C(=O)O)[C@H]1O[C@@H](n2ccc(=O)[nH]c2=O)[C@H](O)[C@@H]1O)c1csc(O)c1,>2048 µg/mL
18,CC[C@@H](O)C(N)C(=O)N[C@H](C(=O)O)[C@H]1O[C@@H](n2ccc(=O)[nH]c2=O)[C@H](O)[C@@H]1O (some centres not stated),>2048 µg/mL
19,C[C@H](Cc1ccc(O)cc1)[C@H](N)C(=O)N[C@H](C(=O)O)[C@H]1O[C@@H](n2ccc(=O)[nH]c2=O)[C@H](O)[C@@H]1O,35 µg/mL
20,NCC(=O)N[C@H](C(=O)O)[C@H]1O[C@@H](n2ccc(=O)[nH]c2=O)[C@H](O)[C@@H]1O,>2048 µg/mL
21,N[C@@H](Cc1c[nH]c2ccccc12)C(=O)N[C@H](C(=O)O)[C@H]1O[C@@H](n2ccc(=O)[nH]c2=O)[C@H](O)[C@@H]1O,2048 µg/mL
22,N[C@@H](CCc1ccc(O)cc1)C(=O)N[C@H](C(=O)O)[C@H]1O[C@@H](n2ccc(=O)[nH]c2=O)[C@H](O)[C@@H]1O,128 µg/mL
